Values quoted from earlier work, collected in US7115565B2, “Chemotherapeutic microemulsion compositions of paclitaxel with improved oral bioavailability” (Pharmacia & Upjohn Company, priority 2001, dated 2006).

Conditions: reported in the background

## CC(=O)O[C@H]1C(=O)[C@@]2(C)[C@H]([C@H](OC(=O)c3ccccc3)[C@]3(O)C[C@H](OC(=O)[C@H](O)[C@@H](NC(=O)c4ccccc4)c4ccccc4)C(C)=C1C3(C)C)[C@]1(OC(C)=O)CO[C@@H]1C[C@@H]2O [Paclitaxel]
  oral bioavailability: very low
